# Measurements as given in ChEMBL document CHEMBL1132782.
# Target: Prothrombin (Homo sapiens) (UniProt P00734)
# Experiment: Inhibitory activity against human thrombin
row,Structure (SMILES),K ass
1,COc1cc(Cn2c(-c3ccc(OCCN4CCCC4)cc3)nc3cc(O)ccc32)ccc1Cn1ccnn1,1.02e+07 l M-1
2,O=C(c1ccc(OCCN2CCCC2)cc1)c1c(-c2ccc(OCCN3CCCC3)cc2)sc2ccccc12,410000 l M-1
3,COc1cc(Cc2c(-c3ccc(OCCN4CCCC4)cc3)sc3cc(O)ccc23)ccc1CN1CCCC1,8.15e+08 l M-1
4,COc1cc(Cn2c(-c3ccc(OCCN4CCCC4)cc3)nc3cc(CN)ccc32)ccc1CN1CCCC1,4.49e+06 l M-1
5,COc1cc(Cn2c(-c3ccc(OCCN4CCCC4)cc3)cc3ccccc32)ccc1CN1CCCC1,1.97e+08 l M-1
6,COc1cc(Cn2c(-c3ccc(OCCN4CCCC4)cc3)nc3cc(O)ccc32)ccc1CN1CCCC1,9.72e+06 l M-1
7,COc1cc(Cn2c(-c3ccc(OCCN4CCCC4)cc3)nc3ccccc32)ccc1CN1CCCC1,1.19e+07 l M-1
8,COc1cc(Cn2c(-c3ccc(OCCN4CCCC4)cc3)nc3cc(CO)ccc32)ccc1CN1CCCC1,1.93e+06 l M-1
9,c1ccc2c(Cc3ccc(OCCN4CCCC4)cc3)c(-c3ccc(OCCN4CCCC4)cc3)[nH]c2c1,42000 l M-1
10,c1ccc2c(c1)cc(-c1ccc(OCCN3CCCC3)cc1)n2Cc1ccc(OCCN2CCCC2)cc1,6.27e+06 l M-1
11,COc1cc(Cn2c(-c3ccc(OCCN4CCCC4=O)cc3)nc3ccccc32)ccc1CN1CCCC1,1.5e+07 l M-1
12,COc1cc(Cn2c(-c3ccc(OCCN4CCCC4)cc3)cc3ccncc32)ccc1C(=O)N1CCCC1,5.97e+07 l M-1
13,COC(=O)CCCOc1ccc(-c2cc3ccccc3n2Cc2ccc(CN3CCCC3)c(OC)c2)cc1,2.47e+07 l M-1
14,c1ccc2c(c1)nc(-c1ccc(OCCN3CCCC3)cc1)n2Cc1ccc(OCCN2CCCC2)cc1,332000 l M-1
15,COc1cc(Cn2c(-c3ccc(OCCCC(=O)O)cc3)cc3ccccc32)ccc1CN1CCCC1,6.41e+06 l M-1
16,COc1cc(Cc2c(-c3ccc(OCCN4CCCC4)cc3)sc3ccccc23)ccc1CN1CCCC1,1.26e+08 l M-1
17,c1ccc2c(Cc3ccc(OCCN4CCCC4)cc3)c(-c3ccc(OCCN4CCCC4)cc3)oc2c1,974000 l M-1
18,COc1cc(Cn2c(-c3ccc(OCCN4CCCC4)cc3)nc3cc(O)ccc32)ccc1Cn1cccn1,1.2e+07 l M-1
19,COc1cc(Cn2c(-c3ccc(OCCN4CCCC4)cc3)nc3cc(O)ccc32)ccc1Cn1ccnc1,9.6e+06 l M-1
20,COc1cc(Cc2c(-c3ccc(OCCCCO)cc3)sc3ccccc23)ccc1CN1CCCC1,1.49e+07 l M-1
21,COc1cc(Cn2c(-c3ccc(OCCCCO)cc3)cc3ccccc32)ccc1CN1CCCC1,3.37e+07 l M-1
22,COc1cc(Cc2c(-c3ccc(OCCCC(=O)O)cc3)sc3ccccc23)ccc1CN1CCCC1,3.91e+06 l M-1
23,COc1cc(Cn2c(-c3ccc(OCCN4CCCC4)cc3)cc3cnccc32)ccc1CN1CCCC1,7.39e+07 l M-1
24,COC(=O)CCCOc1ccc(-c2sc3ccccc3c2Cc2ccc(CN3CCCC3)c(OC)c2)cc1,7.68e+06 l M-1
25,COc1cc(Cn2c(-c3ccc(OCCn4cccn4)cc3)nc3ccccc32)ccc1CN1CCCC1,1.46e+06 l M-1
26,COc1cc(Cn2c(-c3ccc(OCCN4CCCC4)cc3)cc3cnccc32)ccc1C(=O)N1CCCC1,8.37e+07 l M-1
27,COc1cc(Cn2c(-c3ccc(OCCN4CCCC4)cc3)nc3cc(O)ccc32)ccc1NCc1ccccc1,1.65e+07 l M-1
